Patent US20180021270A1, “METHODS FOR THE TREATMENT OF CANCER USING COENZYME Q10 IN COMBINATION WITH IMMUNE CHECKPOINT MODULATORS” (Berg LLC, priority 2016, published 2018)

Test system: murine Balb/c PBMCs
Test: Frequency of PD-1 expressing cells within murine PBMCs
Assay type: cell-based, mouse
Conditions: 0-800 μM, 24 hours, dose dependent, unstimulated and PHA-stimulated cells
Experimental: The frequency of PD-1 expressing cells within PHA-stimulated or unstimulated murine Balb/c PBMCs was also evaluated. Cells were concurrently treated with Coenzyme Q10 (0, 12.5, 50, 200, 400 or 800 μM) for 24 hours and evaluated by flow cytometry using surface marker antibody for αCD3 and viability stains Annexin V/7AAD. Viable cells were identified by plotting Annexin V vs. 7 AAD, and gated viable cells were subjected to CD3 vs. PD-1 staining. Two experiments using two different pools of Balb/c PBMCs and one experiment using C57B1/6 PBMCs were conducted.

COC1=C(OC)C(=O)C(C/C=C(\C)CC/C=C(\C)CC/C=C(\C)CC/C=C(\C)CC/C=C(\C)CC/C=C(\C)CC/C=C(\C)CC/C=C(\C)CC/C=C(\C)CCC=C(C)C)=C(C)C1=O [Coenzyme Q10]
Frequency of PD-1 negative CD3 positive T cells: increased
